Laboratory results published in PubChem BioAssay AID1259407 (Chemical Carcinogenesis Research Information System (CCRIS), 2018).
“Also recorded” adds a separate entry of the source. Active and inactive are the calls of the source. How the calls were made is not given here.

Test system: CCRIS mutagenicity, Ames/micronucleus/aberration tests
Assay: CCRIS mutagenicity studies

Measured: mutagenic call

Nc1ccc([N+](=O)[O-])cc1N
inactive: End Point: IN VITRO CHROMOSOMAL ABERRATIONS, Test System: CHL CELLS, Metabolic Activation: RAT, LIVER, S-9, SODIUM PHENOBARBITAL AND 5,6-BENZOFLAVONE inactive; negative; authors report equivocal results for structural changes at 0.75 , 1.5 | Test System: AMES SALMONELLA TYPHIMURIUM, Strain/Indicator: TA4001, Metabolic Activation: NONE, Method: STANDARD PLATE inactive; negative | Test System: AMES SALMONELLA TYPHIMURIUM, Strain/Indicator: TA7001, Metabolic Activation: NONE, Method: STANDARD PLATE inactive; negative | Test System: AMES SALMONELLA TYPHIMURIUM, Strain/Indicator: TA7001, Metabolic Activation: RAT LIVER S-9, AROCLOR 1254, Method: STANDARD PLATE inactive; negative | Test System: AMES SALMONELLA TYPHIMURIUM, Strain/Indicator: TA7003, Metabolic Activation: NONE, Method: STANDARD PLATE inactive; negative | Test System: CHINESE HAMSTER OVARY, Strain/Indicator: CHO-K1-BH4 (HGPRT)/6-THIOGUANINE, Metabolic Activation: NONE inactive; negative | Test System: CHINESE HAMSTER OVARY, Strain/Indicator: CHO-K1-BH4 (HGPRT)/6-THIOGUANINE, Metabolic Activation: S-9 inactive; negative | Test System: E. COLI, Strain/Indicator: WP2 UVRA, Metabolic Activation: HAMSTER, LIVER, S-9, AROCLOR 1254, Method: STANDARD PLATE inactive; negative | Test System: E. COLI, Strain/Indicator: WP2 UVRA, Metabolic Activation: HAMSTER, LIVER, S-9, Method: STANDARD PLATE inactive; negative | Test System: E. COLI, Strain/Indicator: WP2 UVRA, Metabolic Activation: MOUSE, LIVER, S-9, AROCLOR 1254, Method: STANDARD PLATE inactive; negative | Test System: E. COLI, Strain/Indicator: WP2 UVRA, Metabolic Activation: MOUSE, LIVER, S-9, Method: STANDARD PLATE inactive; negative | Test System: E. COLI, Strain/Indicator: WP2 UVRA, Metabolic Activation: NONE, Method: STANDARD PLATE inactive; negative | Test System: E. COLI, Strain/Indicator: WP2 UVRA, Metabolic Activation: RAT, LIVER, S-9, AROCLOR 1254, Method: STANDARD PLATE inactive; negative | Test System: E. COLI, Strain/Indicator: WP2 UVRA, Metabolic Activation: RAT, LIVER, S-9, Method: STANDARD PLATE inactive; negative
active: Test System: AMES SALMONELLA TYPHIMURIUM, Strain/Indicator: TA98(NR), Metabolic Activation: NONE, Method: PREINCUBATION active; positive | Test System: AMES SALMONELLA TYPHIMURIUM, Strain/Indicator: TA98(NR), Metabolic Activation: RAT, LIVER, S-9, AROCLOR 1254, Method: PREINCUBATION active; positive | Test System: AMES SALMONELLA TYPHIMURIUM, Strain/Indicator: TA98, Metabolic Activation: NONE active; positive | Test System: AMES SALMONELLA TYPHIMURIUM, Strain/Indicator: TA98, Metabolic Activation: NONE, Method: PREINCUBATION active; positive | Test System: AMES SALMONELLA TYPHIMURIUM, Strain/Indicator: TA98, Metabolic Activation: NONE, Method: STANDARD PLATE active; positive | Test System: AMES SALMONELLA TYPHIMURIUM, Strain/Indicator: TA98, Metabolic Activation: PEA APICAL BUD S-9, Method: PREINCUBATION active; positive | Test System: AMES SALMONELLA TYPHIMURIUM, Strain/Indicator: TA98, Metabolic Activation: PEA APICAL BUD S-9, Method: STANDARD PLATE active; positive | Test System: AMES SALMONELLA TYPHIMURIUM, Strain/Indicator: TA98, Metabolic Activation: RAT, LIVER, S-9, AROCLOR 1254 active; positive | Test System: AMES SALMONELLA TYPHIMURIUM, Strain/Indicator: TA98, Metabolic Activation: RAT, LIVER, S-9, AROCLOR 1254, Method: PREINCUBATION active; positive | Test System: AMES SALMONELLA TYPHIMURIUM, Strain/Indicator: TA98, Metabolic Activation: RAT, LIVER, S-9, AROCLOR 1254, Method: STANDARD PLATE active; positive | Test System: AMES SALMONELLA TYPHIMURIUM, Strain/Indicator: TA98, Metabolic Activation: RAT, LIVER, S-9, PHENOBARBITAL AND BETA-NAPHTHOFLAVONE, Method: PREINCUBATION active; positive | Test System: AMES SALMONELLA TYPHIMURIUM, Strain/Indicator: TA98, Metabolic Activation: RAT, LIVER, S-9, SODIUM PHENOBARBITAL AND 5,6-BENZOFLAVONE, Method: PREINCUBATION active; positive | Test System: AMES SALMONELLA TYPHIMURIUM, Strain/Indicator: TA98, Metabolic Activation: ZEA MAYS, S-2, Method: STANDARD PLATE active; positive | Test System: AMES SALMONELLA TYPHIMURIUM, Strain/Indicator: TA100(NR), Metabolic Activation: NONE, Method: PREINCUBATION active; positive | Test System: AMES SALMONELLA TYPHIMURIUM, Strain/Indicator: TA100(NR), Metabolic Activation: RAT, LIVER, S-9, AROCLOR 1254, Method: PREINCUBATION active; positive | Test System: AMES SALMONELLA TYPHIMURIUM, Strain/Indicator: TA100, Metabolic Activation: NONE, Method: PREINCUBATION active; positive | Test System: AMES SALMONELLA TYPHIMURIUM, Strain/Indicator: TA100, Metabolic Activation: NONE, Method: STANDARD PLATE active; positive | Test System: AMES SALMONELLA TYPHIMURIUM, Strain/Indicator: TA100, Metabolic Activation: PEA APICAL BUD S-9, Method: PREINCUBATION active; positive | Test System: AMES SALMONELLA TYPHIMURIUM, Strain/Indicator: TA100, Metabolic Activation: PEA APICAL BUD S-9, Method: STANDARD PLATE active; positive | Test System: AMES SALMONELLA TYPHIMURIUM, Strain/Indicator: TA100, Metabolic Activation: RAT, LIVER, S-9, AROCLOR 1254, Method: PREINCUBATION active; positive | Test System: AMES SALMONELLA TYPHIMURIUM, Strain/Indicator: TA100, Metabolic Activation: RAT, LIVER, S-9, AROCLOR 1254, Method: STANDARD PLATE active; positive | Test System: AMES SALMONELLA TYPHIMURIUM, Strain/Indicator: TA100, Metabolic Activation: RAT, LIVER, S-9, PHENOBARBITAL AND BETA-NAPHTHOFLAVONE, Method: PREINCUBATION active; positive | Test System: AMES SALMONELLA TYPHIMURIUM, Strain/Indicator: TA100, Metabolic Activation: ZEA MAYS, S-2, Method: STANDARD PLATE active; positive | Test System: AMES SALMONELLA TYPHIMURIUM, Strain/Indicator: TA104, Metabolic Activation: NONE, Method: STANDARD PLATE active; positive | Test System: AMES SALMONELLA TYPHIMURIUM, Strain/Indicator: TA4006, Metabolic Activation: NONE, Method: STANDARD PLATE active; positive | Test System: AMES SALMONELLA TYPHIMURIUM, Strain/Indicator: TA7002, Metabolic Activation: NONE, Method: STANDARD PLATE active; positive | Test System: AMES SALMONELLA TYPHIMURIUM, Strain/Indicator: TA7002, Metabolic Activation: RAT LIVER S-9, AROCLOR 1254, Method: STANDARD PLATE active; positive | Test System: AMES SALMONELLA TYPHIMURIUM, Strain/Indicator: TA7004, Metabolic Activation: NONE, Method: STANDARD PLATE active; positive | Test System: AMES SALMONELLA TYPHIMURIUM, Strain/Indicator: TA7004, Metabolic Activation: RAT LIVER S-9, AROCLOR 1254, Method: STANDARD PLATE active; positive | Test System: AMES SALMONELLA TYPHIMURIUM, Strain/Indicator: TA7005, Metabolic Activation: NONE, Method: STANDARD PLATE active; positive | Test System: AMES SALMONELLA TYPHIMURIUM, Strain/Indicator: TA7005, Metabolic Activation: RAT LIVER S-9, AROCLOR 1254, Method: STANDARD PLATE active; positive | Test System: Ames Salmonella typhimurium, Strain/Indicator: TA97a, Metabolic Activation: None, Method: Preincubation active; positive (decrease in mutagenicity when 0.99-15.90 mg/plate of chloroform extrac | Test System: Ames Salmonella typhimurium, Strain/Indicator: TA98, Metabolic Activation: None, Method: Preincubation active; positive (decrease in mutagenicity when 0.99-15.90 mg/plate of chloroform extrac; also recorded: active; positive (dose related decrease in mutagenicity when 1.82-21.90 mg/plate of meth | Test System: MOUSE LYMPHOMA, Strain/Indicator: L5178Y (TK+/TK-), Metabolic Activation: NONE, Method: SUSPENSION/PLATE active; positive | Test System: MOUSE LYMPHOMA, Strain/Indicator: L5178Y (TK+/TK-), Metabolic Activation: RAT, LIVER, S-9, AROCLOR 1254, Method: SUSPENSION/PLATE active; positive | Test System: UDS RAT HEPATOCYTES, Strain/Indicator: THY INCORP, Metabolic Activation: NONE, Method: AUTORADIOGRAPHY (SERUM-FREE MEDIA) active; positive
